Experiments:
[1] = system: other proteinases of the blood clotting cascade; test: specificity against proteinases of the blood clotting cascade; format: biochemical
thrombin [2] = molecular target: T1, thrombin (Homo sapiens, UniProt P00734); test: dissociation constant of the complex with thrombin; format: binding; details: read-out: dissociations constant Ki of the complex with thrombin
thrombin [3] = molecular target: T1, thrombin; test: specific antithrombin activity; format: biochemical

Row | Substance | inhibition of other proteinases of the blood clotting cascade [1] | Ki (thrombin [2]) [nM] | specific antithrombin activity (thrombin [3])
1 | hirudin | inhibits no other proteinases of the blood clotting cascade | ~0.03 | –
2 | hirudin-PA | – | 0.04 | 680-720 IU/mg

— patent US4767742A, “Hirudin-PA and its derivatives, process for manufacturing these and the use of these substances” (Plantorgan-Werk Heinrich G. F. Christensen, KG, priority 1984, dated 1988)
